This assay deals with LMP1 expression in Kem I cells. Put plainly: microbe, parasite or virus in culture. It counts as cell-based, EBV. The conditions noted are these: for fold induction at 2.5 µM / fold induction at 1 µM: human gammaherpesvirus 4, 48 h; for Average LMP1 Fold Increase / Replicate 1-LMP1 Fold Increase / Replicate 2-LMP1 Fold Increase: Kem I cells, 2.5 uM, 48 hours; for Average LMP1 Fold Increase: average of replicates 1 and 2; for Replicate 1-LMP1 Fold Increase / Replicate 2-LMP1 Fold Increase: fold change in LMP1 transcript vs vehicle.

Setting [1] is: read-out: Average LMP1 Fold Increase, Kem I cells, 2.5 uM, 48 hours, average of replicates 1 and 2.
Where [2] appears, read: read-out: Replicate 1-LMP1 Fold Increase, Kem I cells, 2.5 uM, 48 hours, fold change in LMP1 transcript vs vehicle.
Setting [3] is: read-out: Replicate 2-LMP1 Fold Increase, Kem I cells, 2.5 uM, 48 hours, fold change in LMP1 transcript vs vehicle.
Setting [4] is: read-out: Average LMP1 Fold Increase, Kem I cells, 1 uM, 48 hours, average of replicates 1 and 2.
[5] abbreviates: read-out: Replicate 1-LMP1 Fold Increase, Kem I cells, 1 uM, 48 hours, fold change in LMP1 transcript vs vehicle.
The mark [6] stands for this setting: read-out: Replicate 2-LMP1 Fold Increase, Kem I cells, 1 uM, 48 hours, fold change in LMP1 transcript vs vehicle.

Here are results for 28 compounds from patent publication US20230053688A1, “METHODS TO ALTER LATENCY IN EBV+ MALIGNANCIES” (Cornell University, priority 2020, published 2023).

Structures can show the parent of a compound that is named as a salt. Where two headings read alike, the source gives them in different places.

Regarding `C[C@]12C=CC(=O)N[C@@H]1CC[C@@H]1[C@@H]2CC[C@]2(C)[C@@H](C(=O)Nc3cc(C(F)(F)F)ccc3C(F)(F)F)CC[C@@H]12` [Dutasteride], the fold induction at 2.5 µM is 0.39 under setting [1], 0.38 under setting [2] and 0.41 under setting [3].

For `O=C(N/N=C/c1ccc(O)c(O)c1)c1cc2ccccc2cc1O` [Dynasore], the fold induction at 2.5 µM runs as follows: under setting [1], 0.77; under setting [2], 0.64; under setting [3], 0.89.

Regarding `CCn1c2ccccc2c2cc(Nc3ccnc(NCCCN4CCOCC4)n3)ccc21` [EHop-016], the “Average LMP1 Fold Increase” value is 1.06, the “Replicate 1-LMP1 Fold Increase” value came to 0.70 and the “Replicate 2-LMP1 Fold Increase” value stood at 1.43.

As for `CCN(c1cc(-c2ccc(CN3CCOCC3)cc2)cc(C(=O)NCc2c(C)cc(C)[nH]c2=O)c1C)C1CCOCC1` [EPZ 6438], the fold induction at 1 µM runs as follows: under setting [4], 24.5; under setting [5], 2.14; under setting [6], 46.9.

With `CCN(c1cc(C#CCN2CCOCC2)cc(C(=O)NCc2c(C)cc(C)[nH]c2=O)c1C)[C@H]1CC[C@H](N(C)CCOC)CC1` [EPZ 011989], the fold induction at 1 µM was 30.5 under setting [4], 4.1 under setting [5] and 56.9 under setting [6].

Regarding `COc1cccc(C=NCCN=Cc2cccc(OC)c2[O-])c1[O-].[Cl-].[Mn+3]` [EUK 134], the “Average LMP1 Fold Increase” value worked out at 0.90, the “Replicate 1-LMP1 Fold Increase” value amounted to 0.85 and the “Replicate 2-LMP1 Fold Increase” value is recorded as 0.95.

Regarding `NC(=O)C1CCCc2c1[nH]c1ccc(Cl)cc21` (stereo not drawn) [EX 527 (Selisistat)], the “Average LMP1 Fold Increase” value was determined as 0.81, the “Replicate 1-LMP1 Fold Increase” value is 0.24 and the “Replicate 2-LMP1 Fold Increase” value worked out at 1.38.

With `COc1cc2c(cc1Cc1cccc(Cl)c1F)c(=O)c(C(=O)O)cn2[C@H](CO)C(C)C` [Elvitegravir (GS-9137, JTK-303)], the “Average LMP1 Fold Increase” value was found to be 1.23, the “Replicate 1-LMP1 Fold Increase” value is reported as 1.25 and the “Replicate 2-LMP1 Fold Increase” value is given as 1.20.

Turning to `CCCCCCCCCCCC1=C(O)C(=O)C=C(O)C1=O` [Embelin], the fold induction at 2.5 µM came out at 0.59 under setting [1], 0.43 under setting [2] and 0.74 under setting [3].

For `OC[C@H]1O[C@@H](c2ccc(Cl)c(Cc3ccc(O[C@H]4CCOC4)cc3)c2)[C@H](O)[C@@H](O)[C@@H]1O` [Empagliflozin (BI 10773)], the “Average LMP1 Fold Increase” value is reported as 0.58, the “Replicate 1-LMP1 Fold Increase” value is on record as 0.67 and the “Replicate 2-LMP1 Fold Increase” value came out at 0.50.

`C[C@H](N[C@@H](CCc1ccccc1)C(=O)O)C(=O)N1CCC[C@H]1C(=O)O.O.O` [Enalaprilat Dihydrate]: the “Average LMP1 Fold Increase” value amounted to 0.51, the “Replicate 1-LMP1 Fold Increase” value amounted to 0.51 and the “Replicate 2-LMP1 Fold Increase” value was found to be 0.52.

Regarding `CCN(CC)C(=O)/C(C#N)=C/c1cc(O)c(O)c([N+](=O)[O-])c1` [Entacapone], the fold induction at 2.5 µM under setting [1] is 0.6, the fold induction at 2.5 µM under setting [2] was 0.49 and the fold induction at 2.5 µM under setting [3] was determined as 0.71.

With `CNC(=O)c1ccc(N2C(=S)N(c3ccc(C#N)c(C(F)(F)F)c3)C(=O)C2(C)C)cc1F` [Enzalutamide (MDV3100)], the “Average LMP1 Fold Increase” value was found to be 0.96, the “Replicate 1-LMP1 Fold Increase” value was 0.88 and the “Replicate 2-LMP1 Fold Increase” value is recorded as 1.05.

On to `Cn1cc(C2=C(c3cn(C4CCN(Cc5ccccn5)CC4)c4ccccc34)C(=O)NC2=O)c2ccccc21` [Enzastaurin (LY317615)], for which the “Average LMP1 Fold Increase” value amounted to 25.14, the “Replicate 1-LMP1 Fold Increase” value is recorded as 0.48 and the “Replicate 2-LMP1 Fold Increase” value was 49.80.

As for `CCOc1ccccc1-n1c(C(C)N2CCN(C(=O)COc3ccc(Cl)cc3)CC2)nc2ccccc2c1=O` (stereo not drawn) [Erastin], the fold induction at 2.5 µM by setting is: under setting [1], 0.73; under setting [2], 0.7; under setting [3], 0.75.

As for `COc1ccc2nc([S@@+]([O-])Cc3ncc(C)c(OC)c3C)[nH]c2c1` [Esomeprazole Sodium], the fold induction at 2.5 µM is 0.3 under setting [1], 0.16 under setting [2] and 0.44 under setting [3].

Turning to `CCc1cccc2c3c([nH]c12)C(CC)(CC(=O)O)OCC3` (stereo not drawn) [Etodolac], the fold induction at 2.5 µM turned out to be 0.84 under setting [1], 0.57 under setting [2] and 1.1 under setting [3].

Consider `CCOC(=O)c1cncn1[C@H](C)c1ccccc1` [Etomidate], for which the fold induction at 2.5 µM by setting is: under setting [1], 0.5; under setting [2], 0.56; under setting [3], 0.44.

Turning to `CO[C@H]1C[C@@H]2CC[C@@H](C)[C@@](O)(O2)C(=O)C(=O)N2CCCC[C@H]2C(=O)O[C@H]([C@H](C)C[C@@H]2CC[C@@H](OCCO)[C@H](OC)C2)CC(=O)[C@H](C)/C=C(\C)[C@@H](O)[C@@H](OC)C(=O)[C@H](C)C[C@H](C)/C=C/C=C/C=C/1C` [Everolimus (RAD001)], the “Average LMP1 Fold Increase” value is on record as 1.65, the “Replicate 1-LMP1 Fold Increase” value turned out to be 2.00 and the “Replicate 2-LMP1 Fold Increase” value amounted to 1.31.

Turning to `C=C1C[C@@H]2[C@H](CC[C@]3(C)C(=O)CC[C@@H]23)[C@@]2(C)C=CC(=O)C=C12` [Exemestane], the fold induction at 2.5 µM by setting is: under setting [1], 0.7; under setting [2], 0.53; under setting [3], 0.86.

As to `Cc1nc(C(=O)NCC(=O)O)c(O)c2ccc(Oc3ccccc3)cc12` [FG-4592], the fold induction at 2.5 µM was 0.22 under setting [1], 0.19 under setting [2] and 0.24 under setting [3].

With `CC1=C(C(=O)OC2CCCCC2)C(c2ccc([N+](=O)[O-])cc2)C2=C(CC(C)(C)CC2=O)N1` (stereo not drawn) [FLI-06], the “Average LMP1 Fold Increase” value is recorded as 0.46, the “Replicate 1-LMP1 Fold Increase” value is given as 0.19 and the “Replicate 2-LMP1 Fold Increase” value was determined as 0.73.

As for `CCOC(=O)C1=C(C)NC(C)=C(C(=O)OC)C1c1cccc(Cl)c1Cl` (stereo not drawn) [Felodipine], the fold induction at 2.5 µM by setting is: under setting [1], 0.77; under setting [2], 0.84; under setting [3], 0.69.

With `CCOC(=O)c1ccc(NC2CCCCC2)c(N)c1` [Ferrostatin-1 (Fer-1)], the “Average LMP1 Fold Increase” value is recorded as 0.22, the “Replicate 1-LMP1 Fold Increase” value was 0.24 and the “Replicate 2-LMP1 Fold Increase” value is recorded as 0.19.

Regarding `CC(C)(C)NC(=O)[C@H]1CC[C@H]2[C@@H]3CC[C@H]4NC(=O)C=C[C@]4(C)[C@H]3CC[C@]12C` [Finasteride], the fold induction at 2.5 µM is, setting by setting: under setting [1], 0.66; under setting [2], 0.51; under setting [3], 0.81.

As for `CCCCCCCCc1ccc(CCC(N)(CO)CO)cc1.Cl` [Fingolimod (FTY720) HCl], the “Average LMP1 Fold Increase” value is listed as 0.69, the “Replicate 1-LMP1 Fold Increase” value worked out at 0.33 and the “Replicate 2-LMP1 Fold Increase” value was 1.06.

As for `CC(C)n1c(/C=C/C(O)CC(O)CC(=O)O)c(-c2ccc(F)cc2)c2ccccc21` (stereo not drawn) [Fluvastatin Sodium], the fold induction at 2.5 µM turned out to be 0.94 under setting [1], 0.84 under setting [2] and 1.04 under setting [3].

Turning to `COCCCC/C(=N\OCCN)c1ccc(C(F)(F)F)cc1` [Fluvoxamine maleate], the fold induction at 2.5 µM is, setting by setting: under setting [1], 0.67; under setting [2], 0.97; under setting [3], 0.37.
